Source: patent publication US7754913B2, “Synthesis of isotopically labeled alpha-keto acids and esters” (Cambridge Isotope Laboratories, Inc., priority 2006, dated 2010)

Columns and labels:
[1] = Shelf storage stability of [1-13C] pyruvic acid in water, 1H and 13C NMR spectra compared; type: physicochemical; details: 0.025M in water; for Storage stability, Duration 12 weeks / Storage stability, Duration 17 weeks: NMR; for Shelf stability (NMR spectra unchanged): each of the samples, all conditions of Table 1
Protocol: Samples of isotopically labeled [1-^13C] pyruvic acid, having Formula VI and synthesized as discussed immediately below, were subjected to various conditions as depicted in Table 1, in order to establish the compound's shelf storage stability.
The resulting [1-^13C] pyruvic acid was tested as follows in Table 1:
^1H and ^13C NMR spectra of the distilled [1-^13C] pyruvic acid in water (0.025M) were acquired at the onset of the study and prior to exposing the samples to the various conditions specified in Table 1. ^1H and ^13C NMR spectra were again acquired for each of the samples after being exposed to the aforementioned conditions on a weekly basis for 12-weeks. The spectra acquired after exposure were compared visually and appeared to remain unchanged as compared with the spectra acquired prior to exposure, i.e. the spectra were as expected for [1-^13C] pyruvic acid in water. As such, it was concluded that each of the samples were shelf stable. Similarly, ^1H and ^13C NMR spectra acquired after 17-weeks of exposure remained unchanged as compared with the spectra acquired prior to exposure.

[2] = cited from earlier work
[3] = Concentration studies: stability of pyruvic acid solutions in water at higher concentrations; type: physicochemical; details: each of the concentrations of Table 2; light for 6-weeks; about 22° C. to about 26° C.
Protocol: Each of these commercial solutions were subjected to light for 6-weeks at temperatures ranging from about 22° C. to about 26° C. At each of the concentrations listed below, it was discovered that the pyruvic acid solutions were stable.

[4] = Sample 3, Room temperature (about 22° C. to about 26° C.), Dark
[5] = Sample 4, Room temperature (about 22° C. to about 26° C.), Light

Storage stability, Duration 12 weeks ([1]; Sample 1, −10° C., Dark) | Storage stability, Duration 17 weeks ([1]; Sample 1, −10° C., Dark) | Storage stability, Duration 12 weeks ([1]; Sample 2, 4° C., Dark) | Storage stability, Duration 17 weeks ([1]; Sample 2, 4° C., Dark) | Storage stability, Duration 12 weeks [1, 4] | Storage stability, Duration 17 weeks [1, 4] | Storage stability, Duration 12 weeks [1, 5] | Storage stability, Duration 17 weeks [1, 5] | Shelf stability (NMR spectra unchanged) ([1]; after 17-weeks) | Shelf stability (NMR spectra unchanged) ([1]; weekly for 12-weeks) | Stability of solutions in water [3] | Structure (SMILES) | Solubility in water [2]
Stable | Stable | Stable | Stable | Stable | Stable | Stable | Stable | shelf stable | shelf stable | – | CC(=O)[13C](=O)O [[1-^13C] pyruvic acid] | –
– | – | – | – | – | – | – | – | – | – | stable | CC(=O)C(=O)O [Pyruvic acid, 2-oxopropanoic acid, reference compound] | soluble
